Reference: CN111729074A, “多肽rl25在制备抗肿瘤药物中的应用” (Zhuhai Campus Of Zunyi Medical University, priority 2020, dated 2020)

What was measured:
[1] = tested on: 3 tumour cells HCT-8, SKVO3, MCF-7 (3种肿瘤细胞); test: MTT assay of cell proliferation, tumour cells (24 h); type: cell-based; settings: for inhibitory effect on the 3 tumour cells: HCT-8, SKVO3, MCF-7, 24 h, in words (IC50 table is a picture); for killing effect on / toxicity to various tumour cells: summary statement
HK2 cells (人肾小管上皮细胞) = test: MTT assay of cell proliferation, normal cells HK2 (24 h); type: cell-based, human; settings: for toxicity / side effect on HK2: in words; for toxicity to normal cells: summary statement
tumour (肿瘤) = settings: background statement on LL37; cited from earlier work
normal cells (正常细胞) = settings: background statement on LL37; cited from earlier work
HCT-8 cells [2] = test: MTT assay of cell proliferation, HCT-8 (therapeutic index); type: cell-based, human; settings: in words
HCT-8 cells [3] = test: ROS in HCT-8 cells, DCFH-DA flow cytometry (24 h); type: cell-based, human; settings: HCT-8, 24 h; for ROS content compared with control: P>0.05
HCT-8 cells [4] = test: HCT-8 apoptosis, Annexin V-FITC/PI flow cytometry (24 h); type: cell-based, human; settings: for concentration dependence of apoptosis / average apoptosis rate / early apoptosis: HCT-8, 24 h; for early apoptosis: versus control
HCT-8 cells [5] = test: HCT-8 mitochondrial membrane potential, JC-1 flow cytometry (24 h); type: cell-based, human; settings: HCT-8, 24 h; for mitochondrial membrane potential: with rising concentration (0-4 μM), versus control, P<0.01
[6] = Earlier antibacterial test; settings: initial tests

LL37: LL37是hCAP-18蛋白中含有37个氨基酸的C端 [reference compound]
inhibitory effect on the 3 tumour cells [1]: 抑制效果均表现较好 | toxicity / side effect on HK2 (HK2 cells (人肾小管上皮细胞); HK2, 24 h): 毒副作用也很明显 | antitumour effect (tumour (肿瘤)): 良好的抗肿瘤效应 | toxicity to normal cells (normal cells (正常细胞)): 对正常细胞的毒性较大

RL25: 氨基酸序列为:RLNRLFRKIRQVIRKFEKGIKEKSK
therapeutic index, IC50(HK2)/IC50(HCT-8) (HCT-8 cells [2]): 较高 | therapeutic index, IC50(HK2)/IC50(tumour cells) ([1]; 3 tumour cells, in words): 较高 | therapeutic index compared with SE37 ([1]; 3 tumour cells, versus SE37): 均高于SE37的治疗指数 | inhibitory effect on tumour cells compared with LL37 ([1]; 3 tumour cells, versus positive drug LL37): 相近或更好 | inhibitory effect on the 3 tumour cells [1]: 很好的抑制效果 | killing effect on / toxicity to various tumour cells [1]: 良好的杀伤效果 | toxicity / side effect on HK2 (HK2 cells (人肾小管上皮细胞); HK2, 24 h): 对正常细胞的毒性小 | toxicity to normal cells compared with LL37 (HK2 cells (人肾小管上皮细胞); HK2, 24 h, versus positive drug LL37): 毒性明显更小 | toxicity to normal cells (HK2 cells (人肾小管上皮细胞)): 毒性轻微 | ROS content, trend (HCT-8 cells [3]; 0-4 μM): 先升高后降低 | ROS content compared with control (HCT-8 cells [3]; 4 μM): 无明显差异 | ROS, mean fluorescence intensity (peak) (HCT-8 cells [3]; peak at 1 μM, versus control P<0.01): 4670±91.804 | concentration dependence of apoptosis (HCT-8 cells [4]): 明显的浓度依赖性 | average apoptosis rate (HCT-8 cells [4]; 1 μM): 29.56% | average apoptosis rate (HCT-8 cells [4]; 2 μM): 37.44% | average apoptosis rate (HCT-8 cells [4]; 4 μM): 55.15% | early apoptosis (HCT-8 cells [4]): 早期凋亡细胞的数目逐渐增加 | killing effect compared with SE37 (HCT-8 cells [4]; HCT-8, 4 μM RL25 versus 6 μM SE37): 强于浓度为6μM的SE37 | mitochondrial membrane potential (HCT-8 cells [5]): 逐渐降低 | antibacterial performance [6]: 较好的抑菌性能

SE37: 抗菌肽SE37(其氨基酸序列为:SETRPVLNRLFDKIRQVIRKFEKGIKEKSKRFFDGLL) [reference compound]
inhibitory effect on the 3 tumour cells [1]: 抑制效果均表现较好 | killing effect on / toxicity to various tumour cells [1]: 毒性均较大 | toxicity / side effect on HK2 (HK2 cells (人肾小管上皮细胞); HK2, 24 h): 毒副作用也很明显 | toxicity to normal cells (HK2 cells (人肾小管上皮细胞)): 毒性均较大 | ROS content, trend (HCT-8 cells [3]; 0-8 μM): 先升高后降低 | ROS content compared with control (HCT-8 cells [3]; 8 μM): 已无明显变化 | ROS, mean fluorescence intensity (peak) (HCT-8 cells [3]; peak at 2 μM): 3127.753±96.501 | concentration dependence of apoptosis (HCT-8 cells [4]): 一定的浓度依赖性 | average apoptosis rate (HCT-8 cells [4]; 3 μM): 27.39% | average apoptosis rate (HCT-8 cells [4]; 6 μM): 36.28% | early apoptosis (HCT-8 cells [4]): 出现明显的早期细胞凋亡 | FL1 channel fluorescence (HCT-8 cells [5]; 0-4 μM): 荧光增多 | FL2 channel fluorescence (HCT-8 cells [5]; 0-4 μM): 荧光减少 | FL1 channel fluorescence signal (HCT-8 cells [5]; 4 μM versus 2 μM): 并未明显增加 | mitochondrial membrane potential (HCT-8 cells [5]): 明显降低
